Experimental data published in patent publication US20240307374A1, “FORMULATION OF FURIN INHIBITOR FOR INHALATION” (BP ASSET V, INC., priority 2021, published 2024).
≈ marks a conversion by molar mass, not a printed value. Where “and” joins values, the source holds several entries; their conditions need not be identical. Identical values can stand only once. Counter-ions that a name gives are not always drawn.

Columns and labels:
Format in all cases: physicochemical
[1] = pKa test, spectrophotometric method (UV-metric pKa)
Experimental: (§1) The spectrophotometric method (UV-metric pKa) and potentiometric method (pH-metric pKa) were used for pKa test of Compound (I) freeform.
1. For UV-metric pKa, the pKa values were determined by monitoring the change in UV absorbance with pH as the compound undergoes ionization.
(§2) The psKa values were extrapolated to 0% organic content using the Yasuda-Shedlovsky extrapolation procedure for pKa values.

[2] = pKa test, potentiometric method (pH-metric pKa); details: MeOH cosolvent, Yasuda-Shedlovsky extrapolation
Experimental: as §1
2. For pH-metric pKa, the pKa values were determined from an examination of the shape of the resultant titration curves and fitting a suitable theoretical model for the compound's ionization behavior onto the titration data.
as §2

[3] = Log D7.4 test, n-octanol/aqueous (pH=7.4) shake flask method
Experimental: The detailed procedure is summarized below. • 1. Pre-equilibrate n-octanol and aqueous buffer by adding 10 mL n-octanol and 10 mL aqueous buffer into a glass vial and keep it rolling for 24 h. The mutually saturated n-octanol and aqueous buffer are obtained after phase separation. • 2. Weigh approximately 1.0 mg sample into a 3-mL glass vial with 1.0 mL of saturated n-octanol inside (obtained in step 1 above) and accelerate dissolution by ultrasonication. • 3. Add 1.0 mL of complementary saturated aqueous buffer into the vial. • 4. Prepare samples in triplicate. Seal the glass vial and mix on a rotary mixer at 25° C. for 24 h. • 5. The phases are separated after rolling. • 6. The concentrations of the compound in each phase are determined by HPLC. Samples in n-octanol phase are diluted 10 times by adding 100 μL of sample solution and 900 µL of ACN/H2O (v/v, 3:1) diluent and mixed well. • 7. Distribution coefficient, referred to as Dow, is calculated as the concentration of the test compound (both ionized and un-ionized) in the n-octanol phase divided by the corresponding concentration in the aqueous phase.

[4] = Equilibrium solubility in pH buffers (3.0-8.0), 20% captisol and water; details: H2O, RT, 24 hrs
Experimental: Additional solids were added into the sample to generate suspension if clear solution obtained. The suspension was equilibrated via stirring (1000 rpm). The suspension was centrifuged to obtain precipitate and supernatants.
Solubility and pH were tested for the supernatants after filtration, and isolated precipitate was tested by XRPD.
(§3) • 1. pH=3.0 buffer (50 mM HCl+KCl): Weigh 365.39 mg KCl into a 100 mL volumetric flask (VF), and add 0.1 mL 1M HCl into the VF, and dilute to volume with water. • 2. pH=4.0 buffer (50 mM citrate): Weigh 56.74 mg citric acid and 60.18 mg trisodium citrate into a 10 mL volumetric flask, and dilute to volume with water. • 3. pH=5.0 buffer (50 mM citrate) Weigh 11.12 mg citric acid and 95.38 mg trisodium citrate into a 10 mL volumetric flask, and dilute to volume with water. • 4. pH=6.0 buffer (50 mM citrate) Weigh 11.04 mg citric acid and 130.2 mg trisodium citrate into a 10 mL volumetric flask, and dilute to volume with water. • 5. pH=6.0 buffer (50 mM phosphate) Weigh 8.7 mg Na2HPO4 and 52.6 mg NaH2PO4 into a 10 mL volumetric flask, and dilute to volume with water. • 6. pH=7.0 buffer (50 mM phosphate) Weigh 23.47 mg Na2HPO4 and 43.34 mg NaH2PO4into a 10 mL volumetric flask, and dilute to volume with water. • 7. pH=8.0 buffer (50 mM phosphate) Weigh 31.64 mg Na2HPO4 and 67.18 mg NaH2PO4into a 10 mL volumetric flask, and dilute to volume with water.

[5] = Equilibrium solubility in pH buffers (pH 4.0-6.0) with pH adjustment; details: pH = 4.0 buffer (50 mM citrate), RT, with pH adjustment
Experimental: In details, ˜5 mg of solids were suspended into 1 mL of each medium with dosing conc. at ˜5 mg/mL. Additional solids were added into the sample to generate suspension if clear solution was obtained. The suspension was equilibrated via stirring (1000 rpm) for 24 hours. The pH of the suspension was adjusted when the final pH shifted above 0.3, and the samples were stirred for another 1.5 hours after pH adjustment. The suspension was centrifuged to obtain precipitate and supernatants. Solubility, purity and pH were tested for the supernatants after filtration, and isolated precipitate was tested by XRPD.
as §3

[6] = DVS (dynamic vapor sorption) moisture uptake
Experimental: (FIG. 5). Sample weight decreased rapidly when humidity decreased from 10% to 0%, which might be caused by loss of crystalline water.
DVS was measured via a SMS (Surface Measurement Systems) DVS Intrinsic.

[7] = Thermodynamic relationships study: slurry competition in acetone/H2O systems; details: RT
Experimental: Slurry competition was conducted in acetone/H2O systems with various water activities (0.0-1.0). […] Solids were separated and tested by XRPD.
(§4) To measure the solubility of freeform in acetone/H2O systems with various water activities, the above experiments were re-performed with addition of aw=0.3 acetone/H2O system. The suspension sample was centrifuged to obtain precipitate and supernatants. Solubility was tested for the supernatants after filtration, and isolated precipitate was tested by XRPD.
Solids were separated and tested by XRPD.

[8] = Solubility of freeform in acetone/H2O systems with various water activities; details: thermodynamic from solid
Experimental: as §4

[9] = Solubility profile of freeform Type D in citrate buffers; details: aqueous citrate buffer, aqueous buffer; citrate salt prepared in situ, summary statement; read-out: aqueous solubility
Experimental: Additional solids were added into the sample to generate suspension if clear solution was obtained. The suspension was equilibrated via stirring (1000 rpm) for 24 hours. The suspension was centrifuged to obtain precipitate and supernatants. Solubility and pH were tested for the supernatants after filtration, and the isolated precipitate was tested by XRPD.

[10] = Formulation solution stability experiments at 5° C.; details: thermodynamic from solid; for solubility at 2 days: aqueous buffer, 5° C., read-out: citrate solubility (supernatant concentration)
Experimental: The five formulations are shown in Table 7-2, and the characterization results are summarized in Example 7. The procedure is summarized below. • 1. […] Add about 149 mg citric acid into the volumetric flask of formulation 1/2/3/4. • 3. Add about 2037 mg of the corresponding sugar into the volumetric flask of formulation 2/3/4. […] Dilute to volume with water for formulation 1/2/3/4. • 5. Dilute to volume with pH=4.0 citrate/phosphate buffer for formulation 5. […] Sonicate the samples for about 2 mins, and filter with 0.45 µm filter to obtain a clear solution. • 7. Fill and seal about 0.7 mL solutions into 32 separate HPLC vials per each formulation and store under corresponding conditions.
The stability samples were stored at 5° C., 25° C., 40° C. and 60° C. for 28 days. After 1 day, 3 days, 7 days, 14 days and 28 days storage, the stability samples at 25° C., 40° C. and 60° C. were taken out for HPLC and pH tests. After 28 days storage, the stability samples at 5° C. were taken out for HPLC and pH tests.
Some of the stability samples at 5° C. became a suspension after storage for 37 days. The samples were then stirred (1000 rpm) at 5° C. for two days, resulting in all samples becoming a suspension. Three of the samples under each condition were characterized to determine the identity of precipitate, solubility of citrate salt at 5° C., and stability at 5° C. • 1. Sample 1 of formulations 1/2/3/4/5 after stirring was isolated, XPRD/^1H NMR of the solid was obtained, and purity/assay/concentration/pH of the supernatant were tested. • 2. Sample 2 of formulations 1/2/3/4/5 after stirring was stored at RT for about 1 hour, and the solid dissolved. Purity/assay/concentration of the solution was tested. • 3. Sample 3 of formulations 1/2/3/4/5 after stirring was sonicated at RT for about 2-3 mins, and the solid dissolved.

CC(=O)NCC1CCN(Cc2cc(Oc3ccc(N4CCN(CCC(=O)O)CC4)nc3)nc(-c3cc(Cl)cc(Cl)c3)c2)CC1 [Compound (I) freeform]
pKa ([1]; 36.4% MeOH in water, MeOH concentration of 36.4%, read-out: psKa (apparent pKa 1), UV-metric): 1.84 | pKa ([1]; 48.2% MeOH in water, MeOH concentration of 48.2%, read-out: psKa (apparent pKa 1), UV-metric): 1.56 | pKa ([1]; 63.9% MeOH in water, MeOH concentration of 63.9%, read-out: psKa (apparent pKa 1), UV-metric): 1.27 | pKa ([1]; MeOH cosolvent, Yasuda-Shedlovsky extrapolation, psKa out of effective pH range 2-12, reference only, read-out: pKa 1, UV-metric): 2.21 | pKa ([1]; MeOH cosolvent, Yasuda-Shedlovsky extrapolation, read-out: pKa 2, UV-metric): 6.98 | pKa ([1]; MeOH cosolvent, Yasuda-Shedlovsky extrapolation, read-out: pKa 3, UV-metric): 7.68 | pKa ([2]; read-out: pKa 1, pH-metric): 3.41 | pKa ([2]; read-out: pKa 2, pH-metric): 6.99 | pKa ([2]; read-out: pKa 3, pH-metric): 7.56 | logD at 24 h ([3]; n-octanol/aqueous buffer (pH 7.4), n-octanol/aqueous pH 7.4, three runs, read-out: Average of LogD7.4): 2.23 | LogD7.4 ([3]; n-octanol/aqueous pH 7.4, single runs 1-3): 2.24 and 2.23 | Average of LogD7.4 ([3]; n-octanol/aqueous pH 7.4, three runs): 2.23 | Final pH in aqueous phase ([3]; runs 1-3): 7.3 | Concentration, Oil (n-octanol phase) ([3]; shake flask, 25° C., 24 h, runs 1-3): 1140 µg/mL and 1100 µg/mL and 1070 µg/mL | Concentration, Aqueous ([3]; shake flask, pH 7.4 buffer, 25° C., 24 h, runs 1-3): 7 µg/mL and 6 µg/mL | S: solubility [4]: 0.02 mg/mL | S: solubility [5]: > 36.9 mg/mL

CC(=O)NCC1CCN(Cc2cc(Oc3ccc(N4CCN(CCC(=O)O)CC4)nc3)nc(-c3cc(Cl)cc(Cl)c3)c2)CC1 [Freeform Type B]
Moisture Uptake (DVS) ([6]; 25° C., from 0% RH to 80% RH): 6.3% | hygroscopicity ([6]; European pharmacopoeia 5.0 criteria, from DVS 0-80% RH at 25° C.): hygroscopic | form change after DVS test (XRPD) ([6]; XRPD before and after DVS): No form change | water activity (aw) at which the form was obtained [7]: below 0.2 | solubility at 2 days ([8]; acetone (aw 0), organic solvent or mixture, Acetone, aw 0, RT): 0.81 mg/mL (≈ 1.26 mM) | solubility at 2 days ([8]; acetone/H2O (986:14), aw 0.2, organic solvent or mixture, Acetone/H2O (986:14), aw 0.2, RT): 3.96 mg/mL (≈ 6.18 mM)

CC(=O)NCC1CCN(Cc2cc(Oc3ccc(N4CCN(CCC(=O)O)CC4)nc3)nc(-c3cc(Cl)cc(Cl)c3)c2)CC1 [citrate salt]
solubility at 24 h [9]: > 50 mg/mL | solubility at 2 days ([10]; formulation solution with sugar (supernatant), presence of sugars, lowest value): 10.4 mg/mL | solubility at 2 days ([10]; formulation solution without sugars (supernatant), without sugars): 16.9 mg/mL | solubility ([10]; formulation solutions 1/2/3/4/5, aqueous buffer, rt, all solids dissolved once warmed up, read-out: solubility of citrate salt): > 20 mg/mL
